Laboratory results published in ChEMBL document CHEMBL4616610, “Discovery of a novel unsymmetrical structural class of HCV NS5A inhibitors with low picomolar antiviral activity” (Bioorg Med Chem Lett, 2020).
pEC50: −log10 of the molar value.

Assays:
Nonstructural protein 5A = target: T1, Nonstructural protein 5A (Hepatitis C virus, UniProt Q5L478); assay: Inhibition of NS5A in Hepatitis C virus subtype 1b replicon infected in human HuH7 cells assessed as reduction in viral replication; assay type: cell-based; conditions: huh-7
T1 sequence (Q5L478 whole entry): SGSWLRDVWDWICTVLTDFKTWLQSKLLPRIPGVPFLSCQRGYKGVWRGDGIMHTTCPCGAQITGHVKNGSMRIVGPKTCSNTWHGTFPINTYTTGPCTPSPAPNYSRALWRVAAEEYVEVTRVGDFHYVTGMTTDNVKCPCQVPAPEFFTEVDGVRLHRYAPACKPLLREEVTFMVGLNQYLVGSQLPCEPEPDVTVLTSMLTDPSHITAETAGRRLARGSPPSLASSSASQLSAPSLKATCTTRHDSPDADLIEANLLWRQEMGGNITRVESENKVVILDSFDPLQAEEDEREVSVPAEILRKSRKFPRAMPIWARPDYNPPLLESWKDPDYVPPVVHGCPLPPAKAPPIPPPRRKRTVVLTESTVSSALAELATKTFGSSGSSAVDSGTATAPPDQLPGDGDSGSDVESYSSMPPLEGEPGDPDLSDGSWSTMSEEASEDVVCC

[1] = Inhibition of NS5A Q30K mutant in Hepatitis C virus subtype 1a replicon infected in human HuH7 cells assessed as reduction in viral replication; assay type: cell-based; conditions: Huh-7
[2] = Inhibition of NS5A in Hepatitis C virus subtype 1b replicon assessed as reduction in viral replication using Ac-Asp-Glu-Asp (EDANS)-Glu-Glu-Abu-(COO) Ala-Ser-Lys (DABCYL)-NH2 as substrate measured after 72 hrs by FRET assay
[3] = Inhibition of NS5A Q30K mutant in Hepatitis C virus subtype 1a replicon assessed as reduction in viral replication using Ac-Asp-Glu-Asp (EDANS)-Glu-Glu-Abu-(COO) Ala-Ser-Lys (DABCYL)-NH2 as substrate measured after 72 hrs by FRET assay

Row | SMILES | EC50 (Nonstructural protein 5A) | also measured
1 | CCCC(=O)Nc1ccc(-c2ccc(-c3c[nH]c([C@@H]4CCCN4C(=O)[C@H](NC(=O)N4CCCC4)c4ccccc4)n3)cc2)cc1 | Not Active | 
2 | CCCC(=O)Nc1ccc(-c2ccc(-c3c[nH]c([C@@H]4CCCN4C(=O)[C@H](NC(=O)c4ccccc4NC(=O)OCc4ccccc4)c4ccccc4)n3)cc2)cc1 | Not Active | 
3 | CCCC(=O)Nc1ccc(-c2ccc(-c3c[nH]c([C@@H]4CCCN4C(=O)[C@H](NC(=O)c4ccc(NC(=O)OCc5ccccc5)cc4)c4ccccc4)n3)cc2)cc1 | Not Active | 
4 | COC1CCN(C(=O)Nc2ccc(-c3ccc(-c4c[nH]c([C@@H]5CCCN5C(=O)[C@H](NC(=O)N5CC[C@@H](NC(=O)OCc6ccccc6)C5)c5ccccc5)n4)cc3)cc2)CC1 |  | pEC50 [1]: 8.33
5 | CCCC(=O)Nc1ccc(-c2ccc(-c3c[nH]c([C@@H]4CCCN4C(=O)[C@H](NC(=O)CCCCCCc4ccccc4)c4ccccc4)n3)cc2)cc1 | Not Active | 
6 | CCCC(=O)Nc1ccc(-c2ccc(-c3c[nH]c([C@@H]4CCCN4C(=O)[C@H](NC(=O)N4CCC[C@H](NC(=O)OCc5ccccc5)C4)c4ccccc4)n3)cc2)cc1 | Not Active | 
7 | CCCC(=O)Nc1ccc(-c2ccc(-c3c[nH]c([C@@H]4CCCN4C(=O)[C@H](NC(=O)c4ccccc4)c4ccccc4)n3)cc2)cc1 | Not Active | 
8 | CCCC(=O)Nc1ccc(-c2ccc(-c3c[nH]c([C@@H]4CCCN4C(=O)[C@H](NC(=O)CCCc4ccccc4)c4ccccc4)n3)cc2)cc1 | Not Active | 
9 | COC(=O)N[C@H](C(=O)N1CCC[C@H]1c1ncc(-c2ccc(-c3ccc(-c4cnc([C@@H]5CCCN5C(=O)[C@@H](NC(=O)OC)C(C)C)[nH]4)cc3)cc2)[nH]1)C(C)C [DACLATASVIR] |  | pEC50 [2]: 11.05; pEC50 [3]: 5.91
